Measurements published in patent publication US20030138399A1, “Anti-inflammatory therapy for inflammatory mediated infection” (priority 1999, published 2003).
Read-outs that look alike come from different tables or passages of the source.

Experiments:
[1] = tested on: HIV pNLlucΔBgl pseudotyped with M-tropic JRFL envelope; assay: HIV replication (luciferase expression) in activated PBMCs, M-tropic pseudotyped virus; format: cell-based; settings: 4 days in culture
Method: (§1) The PBMCs comprise a heterogeneous population of CD4 and CD8 cells with chemokines and cytokines present in the medium. […] Replication incompetent HIV pNLlucΔBgl pseudotyped with either M-tropic JRFL or T-tropic LAI envelope was used for the infection. Luciferase expression was used to assess the degree of HIV replication after 4 days in culture. Medication treated cultures were compared with samples receiving no drug. Cells were analyzed by flow cytometry for cell death after 4 days by staining with 7-AAD.

[2] = tested on: HIV pNLlucΔBgl pseudotyped with T-tropic LAI envelope; assay: HIV replication (luciferase expression) in activated PBMCs, T-tropic pseudotyped virus; format: cell-based; settings: 4 days in culture
Method: as §1

activated PBMCs = settings: 4 days
Method: as §1

[3] = tested on: HIV virus that expresses luciferase when replicated; assay: FIG. 19: HIV replication in cultured infected cells, luciferase by luminometer; format: cell-based
Method: Cultured cells infected with HIV were treated with 5-ASA or AZT in the amounts indicated. Luciferase expression, which indicates the amount of HIV replication, was quantified using a luminometer. The data shown represent nine separate studies.
(§2) Using a culture of cells that are infected with an HIV virus that expresses luciferase when replicated, but without any treatment as a control, Asacol at the two lowest doses (30 and 300 micrograms) is able to inhibit HIV replication by approximately 20%. At the 3000 microgram dose, the amount of suppression is higher, but this is due, in part, to cellular toxicity of the drug at this dose (approximately 30% cell death vs. 13-15% cell death for 30 and 300 microgram doses; AZT produces approximately 16% cell death at a dose of 5 μg). […] While the anti-inflammatory activity of Asacol is not as potent at suppressing HIV replication as is AZT, the activity is nonetheless statistically significant.

[4] = tested on: cultured cells infected with HIV; assay: FIG. 19 study: cell death (cellular toxicity of the drug); format: cell-based
Description: as §2

Compound | % Change from untreated culture (luciferase expression), M-tropic HIV ([1]; 3 μM) | % Change from untreated culture (luciferase expression), M-tropic HIV ([1]; 30 μM) | % Change from untreated culture (luciferase expression), M-tropic HIV ([1]; 300 μM) | % Change from untreated culture (luciferase expression), M-tropic HIV ([1]; 3000 μM, *P < .05) | % Change from untreated culture (luciferase expression), T-Tropic HIV ([2]; 2 μM) | % Change from untreated culture (luciferase expression), T-Tropic HIV ([2]; 20 μM) | % Change from untreated culture (luciferase expression), T-Tropic HIV ([2]; 200 μM) | % death (activated PBMCs; 30 μM) | % death (activated PBMCs; 300 μM) | % death (activated PBMCs; 3000 μM) | amount of suppression of HIV replication ([3]; 3000 microgram dose, compared with lower doses) | inhibition of HIV replication ([3]; two lowest doses (30 and 300 micrograms)) | cell death ([4]; 30 and 300 microgram doses) | cell death ([4]; 3000 microgram dose) | % Change from untreated culture (luciferase expression), M-tropic HIV ([1]; 5 μM, *P < .05) | % Change from untreated culture (luciferase expression), T-Tropic HIV ([2]; 5 μM, *P < .05) | cell death ([4]; dose of 5 μg)
Nc1ccc(O)c(C(=O)O)c1 [5-ASA, 5-aminosalicylic acid] | 46.2% | 50.3% | 48.9% | 67.6* % | 3.2% | 22.4% | 26.0% | 7.3% | 9.4% | 13.3% | higher | approximately 20% | 13-15% | approximately 30% |  |  | 
Cc1cn([C@H]2C[C@H](N=[N+]=[N-])[C@@H](CO)O2)c(=O)[nH]c1=O [AZT, zidovudine] |  |  |  |  |  |  |  |  |  |  |  |  |  |  | 80.0* % | 99.3* % | approximately 16%
